Experimental data reported in patent US12611432B2 (priority 2017, dated 2026).

Columns and labels:
[1] = system: PTEN KO orthotopic tumors; experiment: FTY720 blockade of T cell recruitment in PTEN KO tumor-bearing mice; format: in vivo
Experimental: Survival endpoint was defined by the appearance of hemorrhagic abdominal ascites and/or decreased grooming, ambulation, or piloerection. Volume of all tumor experiments was calculated using caliper measurements at π/6×L×W×H, where L is length of longest axis of the tumor, and W and H are the perpendicular width and height, respectively.
For all in vivo experiments, CP1 was administered intra-urethrally on day 8 post-tumor injection. […]
The Ability of CP1 to Potentiate PD-1 Blockade is Partially Dependent on Increased TIL Recruitment To determine if CP1's ability to recruit lymphocytes into the tumor is necessary for its proven synergy with PD-1 blockade, fingolimod (FTY720), a sphingosine-1 phosphate mimetic that blocks egress of T cells from the lymph nodes into peripheral tissues, was administered. PTEN KO orthotopic tumor-bearing mice were treated with CP1 and anti-PD-1, with the addition of FTY720 administration beginning immediately before CP1 administration, to specifically block CP1-induced T cell infiltration into the tumor without inhibiting the quantity or function of the baseline TILs present in these tumors.

[2] = system: castration-resistant prostate cancer (CRPC); settings: monotherapy, patients with CRPC; cited from earlier work
Myc-CaP cells = format: cell-based, murine; settings: 1 μM mitoxantrone, live or heat killed CP1 MOI 10, 24 or 72 hours
Experimental: (a) LDH level, as a measure of cell death, from CP1 and Myc-CaP co-culture, performed in triplicates. (b-i) Myc-CaP cell were co-cultured with Mx, CP1(MOI 1), or MG1655 (MOI 1) (b, d, g) in normal media or (c, e, f, h, i) with gentamicin (+ G) added after 2 hours. (b, c) ICD was measured via HMGB1 (ELISA, 72 hours), ATP (luminescence assay, 72 hours), and calreticulin (flow cytometry, 24 or 72 hours), performed in biological triplicates, technical duplicates. (d-f) Caspase 3/7 activity (luminescence assay) was measured at (d, e) 6 hours or (f) 24 hours, (d) normalized to cell count (MTT assay), performed in sextuplicates. (g, h) Early stage apoptosis (Annexin V^+PI^-) and late stage apoptosis (Annexin V+PI+) were determined by flow cytometry after 24 hours, performed in triplicates. (i) Western blot analysis of phosphorylated and total MLKL, RIP1, RIP3, full length and cleaved PARP, and β-actin after 24 hours, performed in triplicates.
For indicated in vitro assays, CP1 was heat killed at 70° C. for 45 minutes. […] Additionally, supernatant was assessed for lactate dehydrogenase (LDH) levels as a measure of cell death (CytoTox 96 Non-Radioactive Cytotoxicity Assay, Promega). […] Cells counts were taken at the times of supernatant collection, which were frozen at −80° C. until use for quantifying secreted ATP (Bioluminescent Assay Kit, Sigma) and HMGB1 (ELISA, Tecan Trading).

Row | Compound | overall survival (OS) [2] | also measured
1 | CCCCCCCCc1ccc(CCC(N)(CO)CO)cc1 [FTY720, Fingolimod] |  | tumor volume, mean [1]: 1394 mm^3
2 | nivolumab | no improvement in overall survival (OS) | 
3 | ipilimumab | no improvement in overall survival (OS) | 
4 | O=C1c2c(O)ccc(O)c2C(=O)c2c(NCCNCCO)ccc(NCCNCCO)c21 [mitoxantrone] |  | ICD markers: secreted HMGB1, secreted ATP, cell surface calreticulin (Myc-CaP cells): elevated
